Results taken from ChEMBL document CHEMBL1201862, “PubChem BioAssay data set” (2004).
The source made the active and inactive calls.

Columns and labels:
[1] = viability of PTEN-deleted HCT116 cells – cell-based, HCT116 PTEN knockout, dose response (AID 1047); assay type: functional;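 also: HCT116 colon tumor cells with PTEN knocked out; cells exposed to compound for 60 hours before readout; potency for loss of cell viability measured by luminescence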
[2] = viability of HCT116 lacking mutant beta-catenin – cell-based, human colon tumor, dose response (AID 1045); assay type: functional;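 also: HCT116 colon tumor cells with beta catenin knocked out; cells exposed to compound for 60 hours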
[3] = target: T1, Zinc finger protein mex-5 (Caenorhabditis elegans, UniProt Q9XUB2); assay: potency of MEX-5 RNA-binding blockers – biochemical, C. elegans, fluorescence polarization, dose response (AID 1960)
T1 sequence (Q9XUB2 whole entry): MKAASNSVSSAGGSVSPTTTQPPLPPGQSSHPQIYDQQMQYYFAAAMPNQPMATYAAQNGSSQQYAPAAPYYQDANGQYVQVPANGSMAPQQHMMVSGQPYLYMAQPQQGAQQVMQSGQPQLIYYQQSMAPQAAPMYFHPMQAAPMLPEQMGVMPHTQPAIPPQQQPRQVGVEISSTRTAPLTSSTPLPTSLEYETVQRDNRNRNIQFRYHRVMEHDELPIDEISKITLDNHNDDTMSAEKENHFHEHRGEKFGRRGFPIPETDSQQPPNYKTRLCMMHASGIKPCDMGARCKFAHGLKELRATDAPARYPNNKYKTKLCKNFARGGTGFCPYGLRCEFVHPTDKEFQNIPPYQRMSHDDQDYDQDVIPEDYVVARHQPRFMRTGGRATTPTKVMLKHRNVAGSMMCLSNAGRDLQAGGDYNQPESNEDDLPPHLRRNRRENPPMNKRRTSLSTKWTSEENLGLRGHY

[4] = NIH3T3 cell viability loss – ATP luminescence, mouse fibroblasts, counter-screen, dose response (AID 2010); assay type: functional, cell-based;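 also: cells exposed to compound for about 90 hours before reading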
[5] = target: T2, RNA-binding protein pos-1 (Caenorhabditis elegans, UniProt G5EF15); assay: disruptors of C. elegans POS-1 RNA interaction – biochemical, fluorescence polarization, dose response (AID 1964);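 also: purified POS-1 fused to maltose binding protein made in E. coli; potency of compounds blocking POS-1 binding to fluorescent RNA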
T2 sequence (G5EF15 whole entry): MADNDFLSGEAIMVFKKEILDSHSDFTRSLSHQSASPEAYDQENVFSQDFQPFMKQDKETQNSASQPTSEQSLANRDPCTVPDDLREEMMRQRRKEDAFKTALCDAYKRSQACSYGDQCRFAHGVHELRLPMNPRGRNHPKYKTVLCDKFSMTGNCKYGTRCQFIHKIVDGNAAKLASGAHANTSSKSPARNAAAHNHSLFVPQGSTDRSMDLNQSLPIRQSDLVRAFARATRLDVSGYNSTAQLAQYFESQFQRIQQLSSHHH

[6] = Trypanosoma cruzi growth suppression in host cells – NIH3T3 host cells, beta-gal luminescence, confirmation (AID 2044); assay type: functional, cell-based;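 also: intracellular parasites grown in NIH/3T3 mouse fibroblasts as host cells; luminescent beta-galactosidase reporter signal from transgenic T. cruzi replicating inside host cells; inhibitors lower the luminescence signal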
Protein RecA = target: T3, Protein RecA (Mycobacterium tuberculosis, UniProt P9WHJ3); assay: Fluorescence Cell-Free Homogeneous Dose Retest to Identify Inhibitors of RecA-Intein Splicing Activity. [Related pubchem assays (depositor defined):AID2097, AID2223, AID489010, AID492950]; assay type: functional
T3 sequence (P9WHJ3 whole entry): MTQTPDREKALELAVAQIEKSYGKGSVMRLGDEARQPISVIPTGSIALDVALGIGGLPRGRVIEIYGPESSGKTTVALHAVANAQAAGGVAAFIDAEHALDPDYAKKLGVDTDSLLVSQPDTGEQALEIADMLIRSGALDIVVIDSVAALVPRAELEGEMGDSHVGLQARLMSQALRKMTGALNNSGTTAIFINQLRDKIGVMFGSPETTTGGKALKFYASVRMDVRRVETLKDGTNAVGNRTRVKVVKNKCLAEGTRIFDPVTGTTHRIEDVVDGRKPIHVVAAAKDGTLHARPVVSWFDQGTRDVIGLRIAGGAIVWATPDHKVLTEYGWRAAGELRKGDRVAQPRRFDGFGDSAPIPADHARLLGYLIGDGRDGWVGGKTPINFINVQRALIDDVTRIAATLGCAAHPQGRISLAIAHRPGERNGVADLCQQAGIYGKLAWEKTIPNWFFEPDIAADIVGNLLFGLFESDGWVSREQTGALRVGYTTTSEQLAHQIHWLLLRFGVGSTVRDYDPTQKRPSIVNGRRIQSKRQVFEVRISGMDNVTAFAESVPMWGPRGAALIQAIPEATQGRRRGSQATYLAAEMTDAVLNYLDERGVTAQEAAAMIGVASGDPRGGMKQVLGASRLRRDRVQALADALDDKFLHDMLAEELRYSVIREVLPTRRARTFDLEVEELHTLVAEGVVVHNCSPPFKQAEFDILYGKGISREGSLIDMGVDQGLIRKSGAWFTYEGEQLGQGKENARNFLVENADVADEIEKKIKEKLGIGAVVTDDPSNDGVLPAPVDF

[7] = target: T4, Replicative DNA helicase DnaB (Mycobacterium tuberculosis, UniProt P9WMR3); assay: DnaB intein splicing inhibitors, dose response, biochemical, cell-free fluorescence (AID 449749); assay type: functional
T4 sequence (P9WMR3 whole entry): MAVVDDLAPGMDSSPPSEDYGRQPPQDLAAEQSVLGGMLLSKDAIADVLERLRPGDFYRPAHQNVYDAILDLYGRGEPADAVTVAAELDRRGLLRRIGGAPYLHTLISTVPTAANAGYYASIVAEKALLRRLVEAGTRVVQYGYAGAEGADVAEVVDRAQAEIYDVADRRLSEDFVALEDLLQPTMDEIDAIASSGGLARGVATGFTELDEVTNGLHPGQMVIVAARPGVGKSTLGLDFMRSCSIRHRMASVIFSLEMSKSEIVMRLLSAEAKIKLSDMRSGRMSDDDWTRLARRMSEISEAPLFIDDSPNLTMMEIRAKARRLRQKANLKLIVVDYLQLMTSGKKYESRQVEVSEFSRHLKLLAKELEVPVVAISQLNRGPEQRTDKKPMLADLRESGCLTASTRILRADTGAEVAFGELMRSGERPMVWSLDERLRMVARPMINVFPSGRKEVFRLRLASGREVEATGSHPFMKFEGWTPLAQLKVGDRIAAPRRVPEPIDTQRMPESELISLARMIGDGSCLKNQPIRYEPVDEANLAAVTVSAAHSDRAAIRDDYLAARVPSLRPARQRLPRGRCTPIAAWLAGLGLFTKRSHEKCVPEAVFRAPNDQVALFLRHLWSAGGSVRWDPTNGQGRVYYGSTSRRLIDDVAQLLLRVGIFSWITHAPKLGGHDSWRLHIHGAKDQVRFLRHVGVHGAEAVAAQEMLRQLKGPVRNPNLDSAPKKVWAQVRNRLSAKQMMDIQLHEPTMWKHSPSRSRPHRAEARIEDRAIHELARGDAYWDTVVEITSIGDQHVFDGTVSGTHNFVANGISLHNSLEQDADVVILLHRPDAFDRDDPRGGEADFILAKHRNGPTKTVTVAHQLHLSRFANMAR

[8] = luciferase reporter signal suppression in cells – H4 neuroglioma cells, luminescence, dose response (AID 1990); assay type: functional, cell-based
[9] = test system: Streptococcus sp. 'group A'; assay: Streptococcus pyogenes SK(-)GAS viability under kanamycin – luminescence, BacTiterGlo, confirmation, counter-screen for streptokinase expression inhibitor project, dose response (AID 1900); assay type: functional, organism-based
Streptococcus = assay: GAS UMAA2166 growth inhibition – luminescence, BacTiterGlo, counter-screen for streptokinase expression inhibitor project, dose response (AID 1915); assay type: functional, organism-based;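 also: potency for reduction of bacterial viability or growth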
[10] = alpha-synuclein stem-loop luciferase translation blockers – H4 neuroglioma cells, luminescence, confirmation (AID 1988); assay type: functional, cell-based
Streptokinase A = target: T5, Streptokinase A (Streptococcus pyogenes serotype M1, UniProt P10520); assay: viability-normalized secreted streptokinase activity reduction – plasminogen activation absorbance, OD405, dose response (AID 1914); assay type: functional, Streptococcus pyogenes M1 GAS;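 also: secreted streptokinase activity via plasminogen activation per viability signal from cell pellet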
T5 sequence (P10520 whole entry): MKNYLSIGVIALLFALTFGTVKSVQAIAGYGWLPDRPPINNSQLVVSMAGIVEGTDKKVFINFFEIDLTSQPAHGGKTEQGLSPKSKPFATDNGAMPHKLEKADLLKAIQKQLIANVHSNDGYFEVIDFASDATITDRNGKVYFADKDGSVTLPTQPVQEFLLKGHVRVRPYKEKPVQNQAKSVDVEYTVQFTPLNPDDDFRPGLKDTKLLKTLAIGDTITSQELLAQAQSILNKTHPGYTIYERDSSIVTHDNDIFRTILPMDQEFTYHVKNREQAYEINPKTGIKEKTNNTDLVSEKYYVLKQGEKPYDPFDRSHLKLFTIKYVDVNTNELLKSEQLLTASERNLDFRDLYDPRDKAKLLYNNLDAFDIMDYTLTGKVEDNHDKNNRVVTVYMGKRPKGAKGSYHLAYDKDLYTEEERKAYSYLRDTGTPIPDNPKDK

[11] = target: Heat shock protein HSP 90-alpha (Homo sapiens, UniProt P07900); assay type: functional, organism-based
[12] = Luminescence Cell-Based Dose Response HTS to Identify Inhibitors of 5'UTR Stem-Loop Driven Prion Protein mRNA Translation in H4 Neuroglioblastoma Cells. [Related pubchem assays: 1827 (Project Summary), 1813 (Primary HTS)]; assay type: functional
INS1 = assay: INS-1E survival protection against cytokine death – cell-based, luminescence, retest, dose response (AID 449756); assay type: functional; details: Rattus norvegicus;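 also: cell death triggered by IL-1 beta plus TNF-alpha plus IFN-gamma mixture; protective hits raise ATP signal compared with cytokine alone wells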
Fatty acid synthase [13] = target: T6, Fatty acid synthase (Homo sapiens, UniProt P49327); assay: inhibition of human FAS-TE enzyme activity – biochemical, kinetic fluorescence intensity, dose response (AID 624326); assay type: functional;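 also: rate of fluorescence rise from hydrolysis of a fluorogenic O-methyl fluorescein ester substrate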
Fatty acid synthase [14] = target: T6, Fatty acid synthase; assay: inhibition of human FAS-TE enzyme activity – biochemical, endpoint fluorescence intensity, uHTS hits, dose response (AID 624327); assay type: functional;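 also: fluorescence from hydrolysis of an O-methyl fluorescein acyl ester substrate by the enzyme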
[15] = viability of uninfected HEp-2 cells – cell-based, HTS, cytotoxicity control for RSV inhibitor project, dose response (AID 2410); assay type: functional; details: human respiratory syncytial virus
Cytochrome P450 2C9 = Cytochrome P450 2C9 (Homo sapiens, UniProt P11712)
[16] = Luminescence Cell-Based Dose Retest to Confirm Inhibitors of Cancer Stem Cells. [Related pubchem assays (depositor defined):AID2717, AID2721]; assay type: functional; details: Homo sapiens
[17] = P. falciparum Dd2 growth inhibitors, dose response, SYBR Green, cherry-picked samples (AID 1159567); assay type: functional, cell-based

T6 sequence (P49327 whole entry): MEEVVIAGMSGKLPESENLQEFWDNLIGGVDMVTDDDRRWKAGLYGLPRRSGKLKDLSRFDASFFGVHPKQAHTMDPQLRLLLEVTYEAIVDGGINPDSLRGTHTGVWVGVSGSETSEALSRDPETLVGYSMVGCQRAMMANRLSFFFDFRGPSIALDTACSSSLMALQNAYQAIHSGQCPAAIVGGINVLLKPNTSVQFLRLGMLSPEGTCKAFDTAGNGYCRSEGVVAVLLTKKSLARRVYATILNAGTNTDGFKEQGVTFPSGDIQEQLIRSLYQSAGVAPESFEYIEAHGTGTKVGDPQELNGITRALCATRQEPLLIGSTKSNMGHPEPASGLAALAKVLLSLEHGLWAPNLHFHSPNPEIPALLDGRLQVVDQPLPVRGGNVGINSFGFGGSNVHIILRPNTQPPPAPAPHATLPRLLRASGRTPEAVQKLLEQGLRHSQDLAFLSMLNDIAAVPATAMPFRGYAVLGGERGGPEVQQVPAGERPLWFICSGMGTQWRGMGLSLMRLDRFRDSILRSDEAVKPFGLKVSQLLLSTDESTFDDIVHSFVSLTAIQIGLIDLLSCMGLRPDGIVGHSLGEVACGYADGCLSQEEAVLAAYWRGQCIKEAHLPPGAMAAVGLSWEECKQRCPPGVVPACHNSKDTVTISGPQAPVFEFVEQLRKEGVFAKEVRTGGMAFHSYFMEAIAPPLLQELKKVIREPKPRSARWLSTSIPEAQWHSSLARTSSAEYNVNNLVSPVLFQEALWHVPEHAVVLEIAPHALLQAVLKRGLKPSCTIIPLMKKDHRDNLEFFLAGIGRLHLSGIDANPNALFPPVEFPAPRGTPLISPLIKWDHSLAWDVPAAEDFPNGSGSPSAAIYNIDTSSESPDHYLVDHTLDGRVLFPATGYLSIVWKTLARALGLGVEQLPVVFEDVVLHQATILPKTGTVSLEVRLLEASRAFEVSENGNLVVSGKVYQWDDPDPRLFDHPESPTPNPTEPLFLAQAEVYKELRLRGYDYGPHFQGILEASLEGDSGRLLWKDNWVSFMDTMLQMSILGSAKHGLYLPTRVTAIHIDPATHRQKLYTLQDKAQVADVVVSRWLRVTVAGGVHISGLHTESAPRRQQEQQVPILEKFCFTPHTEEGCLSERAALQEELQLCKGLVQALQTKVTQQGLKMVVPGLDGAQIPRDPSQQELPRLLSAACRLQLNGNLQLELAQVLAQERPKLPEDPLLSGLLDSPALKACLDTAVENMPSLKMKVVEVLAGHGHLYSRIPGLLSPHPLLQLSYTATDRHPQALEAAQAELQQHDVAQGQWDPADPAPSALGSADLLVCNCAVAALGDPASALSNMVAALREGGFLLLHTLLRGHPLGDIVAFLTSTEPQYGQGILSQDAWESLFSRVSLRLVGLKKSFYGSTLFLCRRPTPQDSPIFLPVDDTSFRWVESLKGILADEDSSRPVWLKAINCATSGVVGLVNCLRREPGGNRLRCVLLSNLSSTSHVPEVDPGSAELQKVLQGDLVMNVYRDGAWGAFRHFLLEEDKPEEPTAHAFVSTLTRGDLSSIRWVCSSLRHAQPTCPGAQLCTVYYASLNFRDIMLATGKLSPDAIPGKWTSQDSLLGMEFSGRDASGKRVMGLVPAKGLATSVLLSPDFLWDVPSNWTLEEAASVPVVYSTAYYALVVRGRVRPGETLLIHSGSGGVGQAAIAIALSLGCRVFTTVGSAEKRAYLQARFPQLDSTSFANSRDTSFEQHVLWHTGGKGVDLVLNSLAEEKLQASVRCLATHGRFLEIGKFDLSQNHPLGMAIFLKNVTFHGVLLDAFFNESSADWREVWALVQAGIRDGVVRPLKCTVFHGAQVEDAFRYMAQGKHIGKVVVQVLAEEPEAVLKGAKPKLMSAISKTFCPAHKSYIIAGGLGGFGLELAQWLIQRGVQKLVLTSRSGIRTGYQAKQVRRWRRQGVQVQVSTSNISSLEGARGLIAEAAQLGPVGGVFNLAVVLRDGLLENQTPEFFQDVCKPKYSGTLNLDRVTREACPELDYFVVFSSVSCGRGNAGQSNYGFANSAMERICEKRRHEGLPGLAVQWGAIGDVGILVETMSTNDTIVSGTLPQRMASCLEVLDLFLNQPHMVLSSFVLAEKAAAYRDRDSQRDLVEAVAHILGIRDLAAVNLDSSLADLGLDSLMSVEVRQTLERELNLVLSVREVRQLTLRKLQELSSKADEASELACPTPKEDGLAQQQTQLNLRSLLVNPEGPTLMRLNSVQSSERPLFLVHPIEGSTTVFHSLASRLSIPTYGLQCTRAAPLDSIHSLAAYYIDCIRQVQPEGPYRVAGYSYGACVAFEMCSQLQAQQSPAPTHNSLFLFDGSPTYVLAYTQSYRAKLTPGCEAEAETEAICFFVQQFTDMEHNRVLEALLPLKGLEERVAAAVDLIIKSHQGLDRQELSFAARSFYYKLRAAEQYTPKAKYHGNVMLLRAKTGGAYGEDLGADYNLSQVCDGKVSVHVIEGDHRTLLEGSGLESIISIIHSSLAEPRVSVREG
Chain of Cytochrome P450 2C9 (P11712 whole entry): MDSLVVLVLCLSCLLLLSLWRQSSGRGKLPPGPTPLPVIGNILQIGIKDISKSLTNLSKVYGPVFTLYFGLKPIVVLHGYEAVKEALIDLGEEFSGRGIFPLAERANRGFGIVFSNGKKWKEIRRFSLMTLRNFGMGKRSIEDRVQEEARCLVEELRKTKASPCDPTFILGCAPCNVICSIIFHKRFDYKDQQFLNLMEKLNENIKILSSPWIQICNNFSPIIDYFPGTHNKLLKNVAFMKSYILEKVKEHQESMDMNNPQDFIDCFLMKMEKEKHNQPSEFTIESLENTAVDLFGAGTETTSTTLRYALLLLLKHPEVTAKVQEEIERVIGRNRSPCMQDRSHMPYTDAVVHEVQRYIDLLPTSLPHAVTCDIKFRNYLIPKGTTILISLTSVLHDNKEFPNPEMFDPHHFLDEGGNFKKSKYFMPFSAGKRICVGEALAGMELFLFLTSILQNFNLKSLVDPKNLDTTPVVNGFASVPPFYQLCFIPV

For `O=C(CCC(=O)CCN1CCCCC1)CCN1CCCCC1`, the EC50 [1] was 33.1 µM (active) and the EC50 [2] was 32.6 µM (active).

With `Cc1cccn2c(=O)c3cc(C(=O)NC4CCCCC4)c(=N)n(Cc4ccccc4)c3nc12` the EC50 [3] was 8.47 µM (active), the EC50 [4] was > 60 µM (not active) and the EC50 [5] was 25.9 µM (active). For the same compound, the EC50 [6] was 1.63 µM (active).

For `COc1ccc(S(=O)(=O)C(C#N)c2nc3ccccc3nc2N2CCC(C)CC2)cc1` (stereo not drawn), the EC50 [3] was 8.74 µM (active) and the EC50 [5] was 6.4 µM (active).

For `O=C(c1c[nH]c(C(=O)C(Cl)(Cl)Cl)c1)c1ccccc1Cl`, the EC50 (Protein RecA) was 6.27 µM (active), the AC50 [7] was 7.85 µM (active) and the EC50 [1] was 26.5 µM (active). The EC50 [2] was 24.9 µM (active).

In the case of `N#C/C(=C/c1ccc(CNS(=O)(=O)c2ccccc2)o1)C(=O)NCc1ccccc1`, the EC50 [3] is reported as > 300 µM (not active) and the EC50 [5] is reported as > 300 µM (not active).

In the case of `O=Nc1c(O)c2ccccc2c2ccccc12`, the EC50 [8] is reported as 8.1 µM (active), the EC50 (Protein RecA) is reported as 5.3 µM (active) and the AC50 [7] is reported as 4.39 µM (active). For the same compound, the EC50 [9] was 1.68 µM (active), the EC50 (Streptococcus) was 10.8 µM (active) and the EC50 [10] was > 120 µM (not active). The EC50 (Streptokinase A) was 7.11 µM (active), the AC50 [11] was 1.03 µM (active) and the EC50 [12] was > 120 µM (not active). For the same compound, the AC50 (INS1) was 7.86 µM (active).

In the case of `COc1cccc(-c2nc(Oc3cc(C)cc(C)c3)c3ccccc3n2)c1O`, the EC50 [1] is reported as 8.12 µM (active) and the EC50 [2] is reported as 13.7 µM (active).

In the case of `O=C1C=CC(=O)C2C1C1(Cl)C(Cl)=C(Cl)C2(Cl)C1(Cl)Cl` (stereo not drawn), the IC50 (Fatty acid synthase [13]) is reported as 13.8 µM (active), the IC50 (Fatty acid synthase [14]) is reported as 14.8 µM (active) and the AC50 [11] is reported as 7.83 µM (active).

For `COc1ccc(/N=C/c2cc3c(cc2O)OC(N)=C(C#N)C3c2ccccc2)cc1` (stereo not drawn), the EC50 [3] was > 300 µM (not active), the CC50 [15] was 8.02 µM (active) and the EC50 [5] was > 300 µM (not active).

In the case of `COc1cc(/C=N/O)cc(Br)c1OCc1cccc(Cl)c1`, the AC50 (Cytochrome P450 2C9) is reported as “inconclusive”, the AC50 [16] is reported as 5.56 µM (active) and the AC50 [11] is reported as 7.99 µM (active).

For `COc1ccc2c3c([nH]c2c1)[C@@H](CO)N(Cc1nccs1)CC31CCN(Cc2nccs2)CC1`, the AC50 [17] was 4.94 µM (active).

With `C[C@H](CO)N1C[C@H](C)[C@H](CN(C)S(=O)(=O)c2cccs2)Oc2ccc(NC(=O)Cc3cn(C)c4ccccc34)cc2C1=O` the AC50 [17] was 5.02 µM (active).

In the case of `C/C=C/c1ccc2n(c1=O)C[C@@H]1[C@@H](CO)[C@H](C(=O)N3CCC(Cc4ccccc4)CC3)N(CCC)[C@H]21.C/C=C\c1ccc2n(c1=O)C[C@@H]1[C@@H](CO)[C@H](C(=O)N3CCC(Cc4ccccc4)CC3)N(CCC)[C@H]21`, the AC50 [17] is reported as 4.32 µM (active).
